According to patent publication US6462023B1, “Cytostatic agents” (British Biotech Pharmaceuticals, Ltd., priority 1988, dated 2002):

The molecules below were run on histiocytic lymphoma (U937) (assay: cell proliferation assay ([methyl-3H] thymidine incorporation), U937). Conditions: Homo sapiens, U-937; Table 1; final concentration 6 μM; 72 hours in culture, 3 hours pulse; n=6; read-out: U937: percentage of control 3[H] Thymidine incorporation.
Assay type: cell-based, human
Protocol: (§1) Two human cell lines namely a histiocytic lymphoma (U937) and a melanoma (RPMI-7951) were seeded into 30 mm^2 tissue culture wells, in the appropriate culture medium supplemented with 10% fetal calf serum at a density of 250 cells/mm^2. Six hours later the test compounds were added in the same culture medium to the cells to give a final concentration of 6 μM. Control wells contained cells supplemented with the same culture medium containing the equivalent amount of drug vehicle, which in this case was DMSO at a final concentration of 0.08%. After 72 hours in culture the cells were pulsed for 3 hours with [methyl-^3[H] Thymidine] (2 μCi/ml) and then harvested onto filter mats and DNA associated radioactivity counted. Results are expressed as percentage of control ^3[H] Thymidine incorporation (n=6±1 stdv).
Further examples were tested in the U937 assay described above at 6 μM and the results, expressed as percentage of control ^3[H] Thymidine incorporation (n=6±1 stdv), are set out in the following Table 2.
as §1, with “A” for “Two”, “line,” for “lines”, “(U937), was” for “(U937) and a melanoma (RPMI-7951) were”, “30MM^2” for “30 mm^2”, “cellS/MM^2.” for “cells/mm^2.”, “were” for “are”

SMILES	activity at 6 µM
COC(=O)[C@H](Cc1ccccc1)NC(=O)[C@H](CC(C)C)[C@H](C)C(=O)NO [Example 5, 3R-(2-Phenyl-1S-methylcarboxy-ethylcarbamoyl)-2S, 5-dimethylhexanohydroxamic acid]	19%
C=CC[C@H](C(=O)NO)[C@@H](CC(C)C)C(=O)N[C@@H](Cc1ccccc1)C(=O)OC [Example 1, 2S-(3S-Hydroxycarbamoyl-2R-isobutyl-hex-5-enoylamino)-3-phenylpropionic acid methyl ester]	7%
C=CC[C@H](C(=O)NO)[C@@H](CC(C)C)C(=O)N[C@@H](Cc1ccccc1)C(=O)OC(C)C [Example 3, 2S-(3S-Hydroxycarbamoyl-2R-isobutyl-hex-5-enoylamino)-3-phenylpropionic acid isopropyl ester]	2.5%

Same assay, conditions: Homo sapiens, U-937; Table 2; 6 μM; 72 hours in culture; n=6; read-out: U937: percentage of control 3[H] Thymidine incorporation

SMILES	activity at 6 µM
C#CC[C@@H](C(=O)N[C@@H](Cc1ccccc1)C(=O)OC1CCCC1)[C@H](O)C(=O)NO [Example 38, 2S-[2R-(1S-Hydroxy-hydroxycarbamoyl-methyl)-pent-4-ynoylamino]-3-phenylpropionic acid cyclopentyl ester]	37%
C=CC[C@H](C(=O)NO)[C@@H](CC(C)C)C(=O)N[C@@H](Cc1ccccc1)C(=O)O[C@H](C)CCC [Example 34, 2S-(3S-Hydroxycarbamoyl-2R-isobutyl-hex-5-enoylamino)-3-phenylpropionic acid 1R-methyl-butyl ester]	3%
CC(C)C[C@@H](C(=O)N[C@@H](Cc1ccccc1)C(=O)OC(C)C)[C@H](CSc1cccs1)C(=O)NO [Example 17, 2S-{2R-[1S-Hydroxycarbamoyl-2-(thiophen-2-ylsulphanyl)-ethyl]-4-methyl-pentanoylamino}-3-phenyl-propionic acid isopropyl ester]	0%
C=CC[C@H](C(=O)NO)[C@@H](CC(C)C)C(=O)N[C@@H](COC(C)(C)C)C(=O)OC1CCCC1 [Example 40, 3-tert-Butoxy-2S-(3S-hydroxcarbamoyl-2R-isobutyl-hex-5-enoylamino)-propionic acid cyclopentyl ester]	0%
COCCOC(=O)[C@H](NC(=O)[C@H](CC(C)C)[C@H](C)C(=O)NO)C(C)(C)C [Example 18, 2S-[2R-(1S-Hydroxycarbamoyl-ethyl)-4-methyl-pentanoylamino]-3,3-dimethyl-butyric acid 2-methoxy-ethyl ester]	54%
C=CC[C@H](C(=O)NO)[C@@H](CC(C)C)C(=O)N[C@@H](Cc1ccccc1)C(=O)OC(C)(C)C [Example 6, 2S-(3S-Hydroxycarbamoyl-2R-isobutyl-hex-5-enoylamino)-3-phenyilpropionic acid tert-butyl ester]	18%
C=CC[C@H](C(=O)NO)[C@@H](CC(C)C)C(=O)N[C@H](C(=O)OC(C)C)C(C)(C)C [Example 22, 2S-(3S-Hydroxycarbamoyl-2R-isobutyl-hex-5-enoylamino)-3,3-dimethyl-butyric acid isopropyl ester]	51%
CC(C)C[C@@H](C(=O)N[C@@H](Cc1ccccc1)C(=O)OC1CCCC1)[C@H](O)C(=O)NO [Example 11, 2S-[2R-(S-Hydroxy-hydroxycarbamoyl-methyl)-4-methyl-pentanoylamino]-3-phenyl-propionic acid cyclopentyl ester]	0%
C=CC[C@H](C(=O)NO)[C@@H](CC(C)C)C(=O)N[C@H](Cc1ccccc1)C(=O)OCCOC [Example 13, 2S-(3S-Hydroxycarbamoyl-2R-isobutyl-hex-5-enoylamino)-3-phenylpropionic acid 2-methoxy-ethyl ester]	4%
C=CC[C@H](C(=O)NO)[C@@H](CC(C)C)C(=O)N[C@@H](Cc1ccccc1)C(=O)OC1CCOC1 (stereo partly drawn) [Example 35, 2S-(3S-Hydroxycarbamoyl-2R-isobutyl-hex-5-enoylamino)-3-phenylpropionic acid tetrahydro-furan-3(R, S)-yl ester]	14%
CO[C@H](C(=O)NO)[C@@H](CC(C)C)C(=O)N[C@@H](Cc1ccccc1)C(=O)OC(C)C [Example 16, 2S-[2R-(S-Hydroxycarbamoyl-methoxy-methyl)-4-methyl-pentanoylamino]-3-phenyl-propionic acid isopropyl ester]	2%
C=CC[C@H](C(=O)NO)[C@@H](CC(C)C)C(=O)N[C@@H](Cc1ccccc1)C(=O)OC(CC)CC [Example 30, 2S-(3S-Hydroxycarbamoyl-2R-isobutyl-hex-5-enoylamino)-3-phenylpropionic acid 1-ethyl-propyl ester]	6%
CCCCCC[C@H](CC(=O)NO)C(=O)N[C@@H](Cc1ccccc1)C(=O)OC(C)C [Example 10, 2S-(2R-Hydroxycarbamoylmethyl-octanoylamino)-3-phenyl-propionic acid isopropyl ester]	1%
C=CC[C@H](C(=O)NO)[C@@H](CC(C)C)C(=O)N[C@@H](Cc1cccnc1)C(=O)OC1CCCC1 [Example 39, 2S-(3S-Hydroxycarbamoyl-2R-isobutyl-hex-5-enoylamino)-3-pyridin-3-yl-propionic acid cyclopentyl ester]	26%
C=CC[C@H](C(=O)NO)[C@@H](CC(C)C)C(=O)N[C@@H](CC1CCCCC1)C(=O)OC1CCCC1 [Example 28, 3-Cyclohexyl-2S-(3S-hydroxycarbamoyl-2R-isobutyl-hex-5-enoylamino)-propionic acid cyclopentyl ester]	0%
CC(C)C[C@@H](C(=O)N[C@@H](Cc1ccccc1)C(=O)OC1CCCC1)[C@@H](C(=O)NO)C1CCCC1 [Example 37, 2S-[2R-(1S-Cyclopentyl-hydroxycarbamoyl-methyl)-4-methyl-pentanoylamino]-3-phenyl-propionic acid cyclopentyl ester]	0%
CCC[C@H](C(=O)NO)[C@@H](CC(C)C)C(=O)N[C@@H](C(=O)OCCOC)C(C)(C)C [Example 15, 2S-(3S-Hydroxycarbamoyl-2R-isobutyl-hexanoylamino)-3,3-dimethyl-butyric acid 2-methoxy-ethyl ester]	19%
C=CC[C@H](C(=O)NO)[C@@H](CC(C)C)C(=O)N[C@@H](Cc1ccccc1)C(=O)OC1CCN(C)CC1 [Example 29, 2S-(3S-Hydroxycarbamoyl-2R-isobutyl-hex-5-enoylamino)-3-phenylpropionic acid 1-methyl-piperidin-4-yl ester]	49%
CO[C@H](C(=O)NO)[C@@H](CC(C)C)C(=O)N[C@H](C(=O)OC(C)C)C(C)(C)C [Example 24, 2S-[2R-(S-Hydroxycarbamoyl-methoxy-methyl)-4-methyl-pentanoylamino]-3,3-dimethyl-butyric acid isopropyl ester]	50%
O=C(OC1CCCC1)[C@H](Cc1ccccc1)NC(=O)[C@H](CC#Cc1ccccc1Cl)[C@H](O)C(=O)NO [Example 42, 2S-[5-(2-Chlorophenyl)-2R-(1S-hydroxy-hydroxycarbamoyl-methyl)-pent-4-ynoylamino]-3-phenylpropionic acid cyclopentyl ester]	0%
C=CC[C@H](C(=O)NO)[C@@H](CC(C)C)C(=O)N[C@H](Cc1ccccc1)C(=O)OC(C)C [Example 23, 2R-(3S-Hydroxycarbamoyl-2R-isobutyl-hex-5-enoylamino)-3-phenylpropionic acid isopropyl ester]	36%
C=CC[C@H](C(=O)NO)[C@@H](CC(C)C)C(=O)N[C@@H](Cc1ccccc1)C(=O)OCc1ccccc1 [Example 26, 2S-(3S-Hydroxycarbamoyl-2R-isobutyl-hex-5-enoylamino)-3-phenylpropionic acid benzyl ester]	0%
C=CC[C@H](C(=O)NO)[C@@H](CC(C)C)C(=O)N[C@H](C(=O)OC1CCCC1)C(C)(C)C [Example 36, 2S-(3S-Hydroxycarbamoyl-2R-isobutyl-hex-5-enoylamino)-3,3-dimethyl-butyric acid cyclopentyl ester]	51%
CC(C)C[C@@H](C(=O)N[C@@H](Cc1ccccc1)C(=O)OC(C)C)[C@H](C)C(=O)NO [Example 9, 2S-[2R-(1S-Hydroxycarbamoyl-ethyl)-4-methyl-pentanoylamino]-3-phenyl-propionic acid isopropyl ester]	8%

The molecules below were run on melanoma (RPMI-7951) (assay: cell proliferation assay ([methyl-3H] thymidine incorporation), RPMI-7951). Conditions: Table 1; final concentration 6 μM; 72 hours in culture, 3 hours pulse; n=6.
Assay type: cell-based, human
Protocol: as §1

SMILES	RPMI: percentage of control 3[H] Thymidine incorporation
COC(=O)[C@H](Cc1ccccc1)NC(=O)[C@H](CC(C)C)[C@H](C)C(=O)NO [Example 5, 3R-(2-Phenyl-1S-methylcarboxy-ethylcarbamoyl)-2S, 5-dimethylhexanohydroxamic acid]	82 percentage of control
C=CC[C@H](C(=O)NO)[C@@H](CC(C)C)C(=O)N[C@@H](Cc1ccccc1)C(=O)OC [Example 1, 2S-(3S-Hydroxycarbamoyl-2R-isobutyl-hex-5-enoylamino)-3-phenylpropionic acid methyl ester]	40 percentage of control
C=CC[C@H](C(=O)NO)[C@@H](CC(C)C)C(=O)N[C@@H](Cc1ccccc1)C(=O)OC(C)C [Example 3, 2S-(3S-Hydroxycarbamoyl-2R-isobutyl-hex-5-enoylamino)-3-phenylpropionic acid isopropyl ester]	27 percentage of control
